Where two headings read alike, the source gives them in different places.
Assays:
Assay in all cases: Test A preemergence
Format in all cases: in vivo
Kochia (Kochia scoparia) = conditions: Bassia scoparia, pre-emergence, 240 h; for pest or weed control at 125 g/ha: 125 g ai/ha; for pest or weed control at 500 g/ha: 500 g ai/ha
Outline: (§1)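 Preemergence soil spray on seeded pots or post-emergence spray on 1–2 leaf plants, in loam–sand blend. Greenhouse ~10 d. Visual rating 0–100 against untreated plants.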

[1] = tested on: barnyardgrass (Echinochloa crus-galli); conditions: Echinochloa crus-galli, pre-emergence, 240 h; for pest or weed control at 125 g/ha: 125 g ai/ha; for pest or weed control at 500 g/ha: 500 g ai/ha
Outline: as §1

[2] = tested on: giant foxtail (Setaria faberii); conditions: Setaria faberi, pre-emergence, 240 h; for pest or weed control at 125 g/ha: 125 g ai/ha; for pest or weed control at 500 g/ha: 500 g ai/ha
Outline: as §1

[3] = tested on: ragweed (common ragweed, Ambrosia elatior); conditions: Ambrosia artemisiifolia, pre-emergence, 240 h; for pest or weed control at 125 g/ha: 125 g ai/ha; for pest or weed control at 500 g/ha: 500 g ai/ha
Outline: as §1

[4] = tested on: ryegrass, Italian (Italian ryegrass, Lolium multiflorum); conditions: Lolium multiflorum, pre-emergence, 240 h; for pest or weed control at 125 g/ha: 125 g ai/ha; for pest or weed control at 500 g/ha: 500 g ai/ha
Outline: as §1

[5] = preemergence, 0 to 100 scale where 0 is no effect and 100 is complete control, read-out: Kochia plant response rating
[6] = preemergence, 0 to 100 scale where 0 is no effect and 100 is complete control, read-out: Barnyardgrass plant response rating
[7] = preemergence, 0 to 100 scale where 0 is no effect and 100 is complete control, read-out: Foxtail, Giant plant response rating
[8] = preemergence, 0 to 100 scale where 0 is no effect and 100 is complete control, read-out: Ragweed plant response rating
[9] = preemergence, 0 to 100 scale where 0 is no effect and 100 is complete control, read-out: Ryegrass, Italian plant response rating
[10] = Preemergence, visual injury rating after approximately 10 d, read-out: Kochia plant response rating (0 to 100 scale, 0 is no effect, 100 is complete control)
[11] = preemergence, visual injury rating about 10 d after treatment, 0 to 100 scale (0 no effect, 100 complete control), read-out: Kochia plant response rating
[12] = Preemergence, visual injury rating after approximately 10 d, read-out: Barnyardgrass plant response rating (0 to 100 scale, 0 is no effect, 100 is complete control)
[13] = preemergence, visual injury rating about 10 d after treatment, 0 to 100 scale (0 no effect, 100 complete control), read-out: Barnyardgrass plant response rating
[14] = Preemergence, visual injury rating after approximately 10 d, read-out: Foxtail, Giant plant response rating (0 to 100 scale, 0 is no effect, 100 is complete control)
[15] = preemergence, visual injury rating about 10 d after treatment, 0 to 100 scale (0 no effect, 100 complete control), read-out: Foxtail, Giant plant response rating
[16] = Preemergence, visual injury rating after approximately 10 d, read-out: Ragweed plant response rating (0 to 100 scale, 0 is no effect, 100 is complete control)
[17] = preemergence, visual injury rating about 10 d after treatment, 0 to 100 scale (0 no effect, 100 complete control), read-out: Ragweed plant response rating
[18] = Preemergence, visual injury rating after approximately 10 d, read-out: Ryegrass, Italian plant response rating (0 to 100 scale, 0 is no effect, 100 is complete control)
[19] = preemergence, visual injury rating about 10 d after treatment, 0 to 100 scale (0 no effect, 100 complete control), read-out: Ryegrass, Italian plant response rating
[20] = Preemergence, visual injury vs untreated controls after approximately 10 d, read-out: Kochia plant response rating (0 to 100 scale where 0 is no effect and 100 is complete control)
[21] = Preemergence, visual injury vs untreated controls after approximately 10 d, read-out: Barnyardgrass plant response rating (0 to 100 scale where 0 is no effect and 100 is complete control)
[22] = Preemergence, visual injury vs untreated controls after approximately 10 d, read-out: Foxtail, Giant plant response rating (0 to 100 scale where 0 is no effect and 100 is complete control)
[23] = Preemergence, visual injury vs untreated controls after approximately 10 d, read-out: Ragweed plant response rating (0 to 100 scale where 0 is no effect and 100 is complete control)
[24] = Preemergence, visual injury vs untreated controls after approximately 10 d, read-out: Ryegrass, Italian plant response rating (0 to 100 scale where 0 is no effect and 100 is complete control)

Work on Cc1ccc([C@H]2CCN(C)C(=O)[C@@H]2C(=O)Nc2ccc(F)c(F)c2F)cc1 [Compound 1221] yielded a pest or weed control at 125 g/ha (Kochia (Kochia scoparia); preemergence, visual injury rating, 0 to 100 scale where 0 is no effect and 100 is complete control, approximately 10 d, read-out: Kochia plant response rating) of 40%, a pest or weed control at 500 g/ha (Kochia (Kochia scoparia); [5]) of 50% and a pest or weed control at 125 g/ha ([1]; preemergence, visual injury rating, 0 to 100 scale where 0 is no effect and 100 is complete control, approximately 10 d, read-out: Barnyardgrass plant response rating) of 90%. For the same compound, the pest or weed control at 500 g/ha [1, 6] was 100%, the pest or weed control at 125 g/ha ([2]; preemergence, visual injury rating, 0 to 100 scale where 0 is no effect and 100 is complete control, approximately 10 d, read-out: Foxtail, Giant plant response rating) was 90% and the pest or weed control at 500 g/ha [2, 7] was 100%. For the same compound, the pest or weed control at 125 g/ha ([3]; preemergence, visual injury rating, 0 to 100 scale where 0 is no effect and 100 is complete control, approximately 10 d, read-out: Ragweed plant response rating) was 20%, the pest or weed control at 500 g/ha [3, 8] was 70% and the pest or weed control at 125 g/ha ([4]; preemergence, visual injury rating, 0 to 100 scale where 0 is no effect and 100 is complete control, approximately 10 d, read-out: Ryegrass, Italian plant response rating) was 20%. The pest or weed control at 500 g/ha [4, 9] was 80%.

In the case of Cc1ccc([C@H]2CN(C)C(=O)[C@@H]2C(=O)Nc2cccc(F)c2F)cc1C [Compound 1039], the pest or weed control at 125 g/ha (Kochia (Kochia scoparia); [10]) is reported as 80%, the pest or weed control at 500 g/ha (Kochia (Kochia scoparia); [11]) is reported as 100% and the pest or weed control at 125 g/ha [1, 12] is reported as 90%. The pest or weed control at 500 g/ha [1, 13] was 100%, the pest or weed control at 125 g/ha [2, 14] was 90% and the pest or weed control at 500 g/ha [2, 15] was 100%. It also gave a pest or weed control at 125 g/ha [3, 16] of 10%, a pest or weed control at 500 g/ha [3, 17] of 90% and a pest or weed control at 125 g/ha [4, 18] of 60%. The pest or weed control at 500 g/ha [4, 19] was 80%.

Work on COc1cc(C(F)(F)F)ccc1[C@H]1CN(C)C(=O)[C@@H]1C(=O)Nc1ccccc1F [Compound 858] yielded a pest or weed control at 125 g/ha (Kochia (Kochia scoparia); [5]) of 60%, a pest or weed control at 500 g/ha (Kochia (Kochia scoparia); [20]) of 70% and a pest or weed control at 125 g/ha [1, 6] of 90%. It also gave a pest or weed control at 500 g/ha [1, 21] of 90%, a pest or weed control at 125 g/ha [2, 7] of 90% and a pest or weed control at 500 g/ha [2, 22] of 90%. For the same compound, the pest or weed control at 125 g/ha [3, 8] was 0%, the pest or weed control at 500 g/ha [3, 23] was 30% and the pest or weed control at 125 g/ha [4, 9] was 30%. The pest or weed control at 500 g/ha [4, 24] was 70%.

Work on COc1c(F)ccc([C@H]2CN(C)C(=O)[C@@H]2C(=O)Nc2cccc(F)c2F)c1Cl [Compound 893] yielded a pest or weed control at 125 g/ha (Kochia (Kochia scoparia); [5]) of 80%, a pest or weed control at 500 g/ha (Kochia (Kochia scoparia); [20]) of 90% and a pest or weed control at 125 g/ha [1, 6] of 90%. The pest or weed control at 500 g/ha [1, 21] was 100%, the pest or weed control at 125 g/ha [2, 7] was 90% and the pest or weed control at 500 g/ha [2, 22] was 90%. For the same compound, the pest or weed control at 125 g/ha [3, 8] was 40%, the pest or weed control at 500 g/ha [3, 23] was 70% and the pest or weed control at 125 g/ha [4, 9] was 40%. The pest or weed control at 500 g/ha [4, 24] was 90%.

COc1c(F)ccc([C@H]2CN(C)C(=O)[C@@H]2C(=O)Nc2ccc(F)cc2F)c1Cl [Compound 894] gave a pest or weed control at 125 g/ha (Kochia (Kochia scoparia); [5]) of 60%, a pest or weed control at 500 g/ha (Kochia (Kochia scoparia); [20]) of 90% and a pest or weed control at 125 g/ha [1, 6] of 90%. For the same compound, the pest or weed control at 500 g/ha [1, 21] was 100%, the pest or weed control at 125 g/ha [2, 7] was 90% and the pest or weed control at 500 g/ha [2, 22] was 100%. For the same compound, the pest or weed control at 125 g/ha [3, 8] was 0%, the pest or weed control at 500 g/ha [3, 23] was 40% and the pest or weed control at 125 g/ha [4, 9] was 50%. It also gave a pest or weed control at 500 g/ha [4, 24] of 60%.

O=C(Nc1ccccc1F)[C@H]1C(=S)NC[C@@H]1c1ccc(C(F)(F)F)cc1 (racemic) [Compound 1047] was tested, and the pest or weed control at 125 g/ha (Kochia (Kochia scoparia); [10]) was 60%, the pest or weed control at 500 g/ha (Kochia (Kochia scoparia); [11]) was 80% and the pest or weed control at 125 g/ha [1, 12] was 30%. The pest or weed control at 500 g/ha [1, 13] was 80%, the pest or weed control at 125 g/ha [2, 14] was 60% and the pest or weed control at 500 g/ha [2, 15] was 80%. It also gave a pest or weed control at 125 g/ha [3, 16] of 40%, a pest or weed control at 500 g/ha [3, 17] of 60% and a pest or weed control at 125 g/ha [4, 18] of 0%. The pest or weed control at 500 g/ha [4, 19] was 0%.

Cc1cc(F)ccc1NC(=O)[C@H]1C(=O)NC[C@@H]1c1cccc(C(F)(F)F)c1 [Compound 828] showed a pest or weed control at 125 g/ha (Kochia (Kochia scoparia); [5]) of 40%, a pest or weed control at 500 g/ha (Kochia (Kochia scoparia); [20]) of 40% and a pest or weed control at 125 g/ha [1, 6] of 70%. It also gave a pest or weed control at 500 g/ha [1, 21] of 90%, a pest or weed control at 125 g/ha [2, 7] of 90% and a pest or weed control at 500 g/ha [2, 22] of 100%. For the same compound, the pest or weed control at 125 g/ha [3, 8] was 0%, the pest or weed control at 500 g/ha [3, 23] was 0% and the pest or weed control at 125 g/ha [4, 9] was 50%. For the same compound, the pest or weed control at 500 g/ha [4, 24] was 70%.

Compound CCc1cc([C@H]2CNC(=O)[C@@H]2C(=O)Nc2cccc(F)c2F)cs1 [Compound 1155] has a pest or weed control at 125 g/ha (Kochia (Kochia scoparia); preemergence, 0 to 100 scale where 0 is no effect and 100 is complete control, approx. 10 d, read-out: Kochia plant response rating) of 60%, a pest or weed control at 500 g/ha (Kochia (Kochia scoparia); [5]) of 90% and a pest or weed control at 125 g/ha ([1]; preemergence, 0 to 100 scale where 0 is no effect and 100 is complete control, approx. 10 d, read-out: Barnyardgrass plant response rating) of 90%. It also gave a pest or weed control at 500 g/ha [1, 6] of 100%, a pest or weed control at 125 g/ha ([2]; preemergence, 0 to 100 scale where 0 is no effect and 100 is complete control, approx. 10 d, read-out: Foxtail, Giant plant response rating) of 70% and a pest or weed control at 500 g/ha [2, 7] of 90%. It also gave a pest or weed control at 125 g/ha ([3]; preemergence, 0 to 100 scale where 0 is no effect and 100 is complete control, approx. 10 d, read-out: Ragweed plant response rating) of 40%, a pest or weed control at 500 g/ha [3, 8] of 80% and a pest or weed control at 125 g/ha ([4]; preemergence, 0 to 100 scale where 0 is no effect and 100 is complete control, approx. 10 d, read-out: Ryegrass, Italian plant response rating) of 0%. For the same compound, the pest or weed control at 500 g/ha [4, 9] was 30%.

O=C1NC[C@H](c2cc(F)c(C(F)(F)F)c(F)c2)[C@H]1C(=O)Nc1ccc(F)cc1F [Compound 840] was tested, and the pest or weed control at 125 g/ha (Kochia (Kochia scoparia); [5]) was 0%, the pest or weed control at 500 g/ha (Kochia (Kochia scoparia); [20]) was 70% and the pest or weed control at 125 g/ha [1, 6] was 80%. The pest or weed control at 500 g/ha [1, 21] was 90%, the pest or weed control at 125 g/ha [2, 7] was 90% and the pest or weed control at 500 g/ha [2, 22] was 90%. For the same compound, the pest or weed control at 125 g/ha [3, 8] was 0%, the pest or weed control at 500 g/ha [3, 23] was 0% and the pest or weed control at 125 g/ha [4, 9] was 0%. The pest or weed control at 500 g/ha [4, 24] was 20%.
